Data on two compounds can be found in US6696490B2, “Slow release insect repellent compounds and process for delivering active” (priority 2002, dated 2004).

Entries after “also recorded” stand apart in the source; their conditions may differ.

Holding throughout (type): in vivo
Data set [1] in a line: Ethanol extraction of PMD- and PMDL-treated skin followed by GC-MS. As for the experimental part:
PMDL standard and ethanol skin extracts were also analyzed by GC-MS. The injection mode for PMDL was a split mode at 10:1 split ratio. The rest of conditions were the same as the ones used for PMD analysis by GC-MS as are listed above. The SPME apparently is a tube (e.g., dome or other like structure) strapped to measured area (e.g., arm) with an opening (e.g., at top) to insert analytical extractor which is essentially a needle used to trap/absorb volatiles released in the apparatus.
(§1) In this set, individual stock solutions of PMD and PMDL were prepared by placing 0.0978 g PMD and 0.1095 g in 5 mL of ethanol, respectively. Then five areas of skin, about 7 cm^2 on each arm, were selected. One of the five spots on each arm remained untreated as control and marked as a blank. The remaining four areas on the right arm were dosed with 32 μL PMDL and the remaining four areas on the left arm were dosed with 36 μL of PMD. Untreated area 1, and the treated area on each arm marked as 2, 3, 4, and 5, were then extracted with 4 mL of ethanol for a period of 3 min at 0, 15, 60 and 150 min intervals, respectively. Collected extracts were then analyzed by GC-MS for their PMD and PMDL and by APCI-MS for their linoleic acid contents (FIGS. 4, 5, 6 and 7). FIG. 4 is plot of PMD, FIG. 5 is plot of PMDL; and FIGS. 6 and 7 are plots for linoleic acid.

Data set [2] in a line: SPME/GC-MS of PMD generated by hydrolysis of PMDL placed on the skin. Particulars: 100 μg/cm^2 PMDL on skin, sampling 0 to 300 min, FIG. 3a. How it is done: Solid Phase Microextraction (SPME) is a sample preparation technique which has been used for trapping volatiles. In the subject invention, SPME was used to extract and concentrate PMD vapour (by-product of PMDL hydrolysis) in the headspace. The extracted analytes were then analyzed by Gas Chromatography-Mass Spectroscopy (GC-MS). The SPME fiber used here was from Supelco, a 2.0 cm long, StableFlex fiber (23-gauge needle), 50/30 divinylenzene/carboxene on polydimethylsiloxane. Agilent 6890 Gas Chromatography equipped with Agilent 5973 Mass Selective Detector and Chemstation, G1701CA software were used for analyzing and identifying PMD. GC was equipped with a 0.25 […] HP-5 capillary column with 0.25 micrometer of cross-linked 5% Phenyl Methyl Siloxane. The GC oven was programmed to increase its temperature at 2 min from the initial temperature of 60° C. to 300° C. at 6° C./min. The injector temperature and the head pressure were 250° C. and 8.6 psi, respectively. The flow rate of the carrier gas (helium) was 1 mL/min The total flow rate was set at 25 mL/min Purge was off for 0.5 min, i.e. from a split mode into a splitless mode after the program was started. Agilent 5973 Mass Selective Detector with an ion source by an electron impact (El) data system was used for mass spectrometric identification. […]

Data set [3] in a line: Ethanol extraction of PMDL-treated skin followed by APCI-MS for linoleic acid. The following applies: FIGS. 6 and 7. As for the experimental part: as §1, with “Another set of experiments was conducted to confirm the results obtained earlier from SPME-GC for PMD & PMDL and also to confirm hydrolysis of PMDL into linoleic acid and PMD on the skin by ethanol extraction of the skin followed by GC-MS and APCI-MS analysis of the collected extracts. In” for “In”, “FIG. 4 is plot of PMD, FIG. 5 is plot of PMDL; and FIGS. 6 and 7 are plots for linoleic acid.” left out
APCI-MS was used to analyze linoleic acid in ethanol skin extracts. […] Samples from the last set of experiments, as described in the […] were analyzed for their linoleic acid level using this technique. Each extracted sample was analyzed in triplicate.

Data set [4] can be described thus: SPME/GC-MS of headspace above forearm skin dosed with PMD (evaporation of PMD). As for the experimental part:
Solid Phase Microextraction (SPME) is a sample preparation technique which has been used for trapping volatiles. In the subject invention, SPME was used to extract and concentrate PMD vapour (by-product of PMDL hydrolysis) in the headspace. The extracted analytes were then analyzed by Gas Chromatography-Mass Spectroscopy (GC-MS). The SPME fiber used here was from Supelco, a 2.0 cm long, StableFlex fiber (23-gauge needle), 50/30 divinylenzene/carboxene on polydimethylsiloxane. Agilent 6890 Gas Chromatography equipped with Agilent 5973 Mass Selective Detector and Chemstation, G1701CA software were used for analyzing and identifying PMD. GC was equipped with a 0.25 […] HP-5 capillary column with 0.25 micrometer of cross-linked 5% Phenyl Methyl Siloxane. The GC oven was programmed to increase its temperature at 2 min from the initial temperature of 60° C. to 300° C. at 6° C./min. The injector temperature and the head pressure were 250° C. and 8.6 psi, respectively. The flow rate of the carrier gas (helium) was 1 mL/min The total flow rate was set at 25 mL/min Purge was off for 0.5 min, i.e. from a split mode into a splitless mode after the program was started. Agilent 5973 Mass Selective Detector with an ion source by an electron impact (El) data system was used for mass spectrometric identification. The detector was used in a scan mode to scan mass ranging from a Low Mass of 40 to a High Mass of 550. Solvent delay time was 3.5 min. Total sample run time was 60 min.
To determine the extent of evaporation of PMD from the skin matrix over a period of time (correlating to amount of PMD produced by hydrolysis from PMD-L), a number of experiments were carried out. In these experiments, SPME fiber was inserted into a headspace of a glass semi-ball chamber fastened on forearm by an elastic band. […]
For a first set of SPME experiments, a PMD solution at concentration of 21800 μg/mL was prepared by placing 0.218 g of PMD crystals in 10 mL of absolute ethanol. […] The SPME glass chamber and fibers were then removed and the SPME fiber were analyzed by GC-MS for measurement of PMD. […]

In the case of 3,8-p-Menthanedilinoleate [PMDL], in data set [1] (leave on time 0 to 150 min, FIG. 5), the “levels of PMDL on PMDL treated skin (GC-MS peak area of ethanol extracts)” value is on record as “a trend of decrease in the levels of PMDL on the skin”. The “level of PMD on PMDL treated skin” value in data set [1] (over a 150 minute period) is “simultaneous increase in the level of PMD on the skin”. Moreover, the “PMD signal generated from hydrolysis of PMDL on the skin over time (SPME/GC-MS)” value in data set [2] was “presence of high levels of PMD released from the skin at the early stage and then through a decrease in the PMD levels over period of time”; in data set [2] (listed as PMD-L), “initial sharp increase in the concentration of PMD”. In data set [3] (APCI-MS of ethanol extracts at 0, 15, 60 and 150 min), the “linoleic acid level on PMDL treated skin over time” value is reported as “an increase in linoleic acid level over the 15 to 60 min period followed by a decrease at 150 min; also recorded: increase in linoleic on treated skin in first hour followed by a decrease”. Further, the “level of linoleic acid in PMDL treated skin compared to untreated skin (blank)” value in data set [3] (APCI-MS of ethanol extracts) is on record as “substantially higher in the treated skin samples compared to the untreated skin”.

In the case of `CC1CCC(C(C)(C)O)C(O)C1` (centres unmarked) [PMD, 3,8-p-menthanediol, reference compound], in data set [1] (PMD delivered in non-ester form, FIG. 4), the “time after which active is no longer present” value is 2.5 h. Moreover, in data set [1] (leave on time 0 to 150 minutes, FIG. 4), the “PMD levels on PMD treated skin (GC-MS peak area of ethanol extracts)” value is listed as “decreased as the leave on time increased from 0 to 150 minutes; also recorded: decrease of PMD”. Besides, the “levels of PMD on the skin over leave on time (SPME/GC-MS)” value in data set [4] (40 μg/cm^2 PMD applied neat, 0 to 300 minutes, FIG. 3b) was “decreased as the leave on time proceeded from 0 to 300 minutes”. For the same compound, in data set [4] (40 μg/cm^2 PMD on forearm skin, SPME extraction time 30 min, FIG. 3b), the “time over which PMD signal was followed and detected” value is given as “up to 5 hours”. For the same compound, the “time after which PMD signal could not be detected” value in data set [4] (40 μg/cm^2 PMD on forearm skin, SPME sampling time 5 min) came to 2 h.
